In US20250344695A1, “METHOD FOR PEST CONTROL” (priority 2024, published 2025):
Converted amounts (≈) assume the structure as drawn.

Legend:
confused flour beetle = experiment: large-scale chlorobenzene fumigation of corn in a 60-liter chamber, confused flour beetle all life stages; type: in vivo, Tribolium confusum; settings: 24 h at 21° C.
Protocol: (§1) Procedure-Large-scale chlorobenzene fumigations of corn with confused flour beetle and rice weevil were conducted in a 60 L fumigation chamber. The chamber was modified from a 60 L diary pot with an added platform at bottom and a vertically positioned air blower to circulate air in the chamber (FIG. 3). A vial with filter paper was positioned near a port on the wall. A total of 20 kg corn was placed in 9 mesh bags. Confused flour beetle adults and other life stage in flour diet and rice weevil adults and other life stages in pearled barley were sealed in small plastic cages with mesh screens on top and bottom for air movement. One cage with confused four beetle culture medium with all life stages and one cage with all life stages of rice weevil were placed in each mesh bag. The bags were packed in the chamber in two layers. The last two containers with confused flour beetle and rice weevil respectively were placed on top of the corn bags. Ten cages for each species were set up to be fumigated. Five cages for each species were used as controls. The chamber was then placed in a fume hood. After the chamber was sealed, 30 ml chlorobenzene was injected into the vial in the chamber and the air blower was turned on to start a fumigation treatment. The fumigation treatment lasted 24 h at 21° C.
(§2) In each fumigation, chlorobenzene vapor concentrations were measured at 2, 4, 6, 9, 21,and 24 h of each treatment using chlorobenzene detector tubes. For each measurement, a 40 ml air sample from the headspace of the chamber was taken and diluted 50-fold in a 1.9 L glass jar. Then, chlorobenzene detectors with a range of 2-500 ppm were used to measure chlorobenzene concentrations. At the end of each fumigation, the lid of the fumigation chamber was removed, and the air blower was kept running for at least 2 h to ventilate the chamber. The corn bags were then removed and containers with insects were recovered. Insects together with diet from each cage were placed in a plastic vial. All adults were removed from each vial and mortality of adults was scored next day. All vials with diet containing other life stages were incubated at 25° C. in an environmental chamber to allow surviving immature individuals to develop and emerge as adults. The vials were checked weekly to count and remove emerged adults to assess mortality of immature stages until there was no adult emergence for two consecutive weeks. A total of three large-scale fumigation tests have been conducted.

rice weevil = experiment: large-scale chlorobenzene fumigation of corn in a 60-liter chamber, rice weevil all life stages; type: in vivo, Sitophilus oryzae; settings: 24 h at 21° C.
Protocol: as §1, §2

[1] = air=1; cited from earlier work
[2] = test system: rice weevil, Sitophilus oryzae; experiment: chlorobenzene fumigation in 1.9-liter jars, rice weevil adults; type: in vivo; settings: 21° C.
Protocol: (§3) Example 1: Chlorobenzene fumigations were conducted for control of six insect species and one mite species and they were: rice weevil, Sitophilus oryzae (Coleoptera: Curculionidae), confused flour beetle, Tribolium confusum (Coleoptera: Tenebrionidae), navel orangeworm, Amyelois transitella (Lepidoptera: Pyralidae), spotted wing drosophila, Drosophila suzukii (Diptera: Drosophilidae), western flower thrips, Frankliniella occidentalis (Thysanoptera: Thripidae), eastern subterranean termite, Reticulitermes flavipes (Blattodea: Rhinotermitidae), and ham mite, Tyrophagus putrescentiae (Schrank) (Acarina: Acaridae) (FIG. 2). Most fumigations were conducted in 1.9-liter glass jars. Confused flour beetle and rice weevil were fumigated in 1.9-liter jars and in 60-liter chambers with corn. Navel orangeworm was fumigated in 21.8 L chambers modified from pressure cookers. […]
(§4) A filter paper disc was clipped on the port underneath the lid with a metal clip. […] Insect mortality was then scored. Chlorobenzene doses were recorded as microliter liquid per liter of chamber space (ul/l).
(§5) Confused flour beetle and rice weevil adults were collected separately in plastic vials from their prospective colonies. […] Chlorobenzene vapor concentrations were measured during fumigation using detector tubes. After fumigation, insects were kept at room temperature overnight before being scored for mortality. […]

[3] = at 20° C.; cited from earlier work
[4] = test system: western flower thrips, Frankliniella occidentalis; experiment: chlorobenzene fumigation in 1.9-liter jars, western flower thrips larvae and adults; type: in vivo; settings: 24 h at 2° C.
Protocol: as §3, with “corn.” for “corn. Navel orangeworm was fumigated in 21.8 L chambers modified from pressure cookers.”
as §4
Larvae and adults of western flower thrips were collected from infested lettuce plants in small vials each containing a piece of lettuce leaf (ca 20/vial) and stored in a refrigerator to cool them down. […] Vapor concentrations of chlorobenzene were measured during fumigation. After fumigation, thrips were kept at 2° C. overnight before mortality was scored. […]

[5] = cited from earlier work
[6] = test system: ham mite, Tyrophagus putrescentiae; experiment: chlorobenzene fumigation in 1.9-liter jars, ham mites on dog food kibbles; type: in vivo; settings: 21° C., larvae and adults
Protocol: as §3, §4
Ham mites on infested dog food kibbles were fumigated with chlorobenzene at different doses for 24 and 48 h at 21° C. […] After fumigation, vials with ham mites were held at 21° C. overnight before mortality of larvae and adults was scored. […] Chlorobenzene vapor concentrations were measured during each fumigation. […]

[7] = test system: navel orangeworm, Amyelois transitella; experiment: 24 h chlorobenzene fumigation in 21.8-liter chambers, navel orangeworm eggs, larvae and pupae; type: in vivo; settings: 24 h at 21° C.; for Larvae Mortality (%) Mean ± SE: 2nd, 4th, 6th instar pooled
Protocol: Procedure-Navel orangeworm eggs, larvae, and pupae were fumigated with chlorobenzene for 24 h at 21° C. in 21.8L chambers modified from pressure cookers to determine effects on mortality. Each chamber has a fan to circulate air. A small container with a piece of filter affixed in it was positioned next to the fan in each chamber as a reservoir for chlorobenzene (FIG. 4). Egg sheet with eggs oviposited during the last 3 days was harvested and cut into small pieces each with about 50 eggs. One piece of egg sheet was placed in a small 49 ml plastic vial and sealed with a screened lid. Larvae of three different ages (2nd, 4th, and 6th) were set up separately in 157 ml plastic vials each containing 3 g diet (10/vial). The vial was sealed with a screened lid. Three chlorobenzene does 50, 100, and 200 μl/l were tested in three chambers. They were achieved by adding 1, 2, and 4 ml of chlorobenzene in reservoirs in three fumigation chambers, respectively. Except for eggs that were only fumigated with chlorobenzene at 100 and 200 μl/l together with larvae and pupae, in each test, 5 vials of eggs, 9 vials of larvae (3 vials for each stage), and 3 vials of pupae were fumigated in one chamber. Controls were also set up for all life stages tested.
After chlorobenzene was added, the chamber was sealed and the fan was turned on to circulate air continuously for the 24 h duration of fumigation. Chlorobenzene detector tubes were used to measure chlorobenzene vapor concentrations 5-6 times between 2 h after start and before the end of fumigations. By the end of fumigation, all chlorobenzene liquid had vaporized in all three treatments. After fumigation, vials with larvae were held at 21° C. overnight before larval mortality was scored. For navel orangeworm eggs, diet was added in each vial and vials were incubated at 25° C. to allow all viable eggs to hatch. After over 10 days, neonate larvae were counted to estimate egg mortality. Pupae were also incubated at 25° C. in an environmental chamber to allow all viable pupae to develop into moths, and moths were then counted to determine pupal mortality. A total of three tests were conducted.

[8] = test system: spotted wing drosophila, Drosophila suzukii; experiment: chlorobenzene fumigation in 1.9-liter jars, spotted wing drosophila flies; type: in vivo; settings: 50 μl/l dose, 3 h at 21° C.
Protocol: (§6) Example 1: Chlorobenzene fumigations were conducted for control of six insect species and one mite species and they were: rice weevil, Sitophilus oryzae (Coleoptera: Curculionidae), confused flour beetle, Tribolium confusum (Coleoptera: Tenebrionidae), navel orangeworm, Amyelois transitella (Lepidoptera: Pyralidae), spotted wing drosophila, Drosophila suzukii (Diptera: Drosophilidae), western flower thrips, Frankliniella occidentalis (Thysanoptera: Thripidae), eastern subterranean termite, Reticulitermes flavipes (Blattodea: Rhinotermitidae), and ham mite, Tyrophagus putrescentiae (Schrank) (Acarina: Acaridae) (FIG. 2). Most fumigations were conducted in 1.9-liter glass jars. Confused flour beetle and rice weevil were fumigated in 1.9-liter jars and in 60-liter chambers with corn. Navel orangeworm was fumigated in 21.8 L chambers modified from pressure cookers.
Rice weevil and confused flour beetle were reared on pearled barley and wheat flour diet in jars, respectively. Western flower thrips were reared on lettuce plants in a greenhouse. Spotted wing drosophila was reared on an artificial diet in plastic cups. […]
A filter paper disc was clipped on the port underneath the lid with a metal clip. […] Insect mortality was then scored. Chlorobenzene doses were recorded as microliter liquid per liter of chamber space (ul/l). […]

[9] = test system: confused flour beetle, Tribolium confusum; experiment: chlorobenzene fumigation in 1.9-liter jars, confused flour beetle adults; type: in vivo; settings: 21° C.
Protocol: as §3, §4, §5

[10] = test system: eastern subterranean termite, Reticulitermes flavipes; experiment: chlorobenzene fumigation in 1.9-liter jars, eastern subterranean termite workers; type: in vivo; settings: 50 μl/l dose, 3 h at 21° C.
Protocol: as §6
Rice weevil and confused flour beetle were reared on pearled barley and wheat flour diet in jars, respectively. […]
as §4
Workers of eastern subterranean termites were obtained from a commercial source. […] After fumigation, vials with insects were held in an environmental chamber overnight before mortality was scored. […]

[11] = cited from earlier work; remark: listed apart in the source
[12] = 30 ml chlorobenzene in 60 L chamber with 20 kg corn
[13] = large-scale fumigations of corn, 60 L chamber
[14] = 100 μl/l dose (800 ppm vapor concentration), 48-h fumigation
[15] = 150 μl/l dose (1800 ppm vapor concentration), 24-h fumigation

Which results are given for `Clc1ccccc1` [chlorobenzene]?
Adults Mortality (%) (confused flour beetle; [12]): 100%; Immature stages Survived to adults (confused flour beetle; 30 ml chlorobenzene in 60 L chamber with 20 kg corn, adults emerged from 30 treatment vials): 0; Immature stages Relative mortality (%) (confused flour beetle; 30 ml chlorobenzene in 60 L chamber with 20 kg corn, relative to control by adults emerged): 100%; control of adults and immature life stages of confused flour beetle (confused flour beetle; [13]): Complete control; Adults Mortality (%) (rice weevil; [12]): 100%; Immature stages Survived to adults (rice weevil; 30 ml chlorobenzene in 60 L chamber with 20 kg corn, adults emerged from 30 treatment vials (1645 from 15 control vials)): 73; Immature stages Relative mortality (%) (rice weevil; 30 ml chlorobenzene in 60 L chamber with 20 kg corn, relative to control by adults emerged, assuming equal numbers of vials): 97.8%; control of adults of rice weevil (rice weevil; [13]): complete control; vapor density relative to air [1]: 3.9; mortality of rice weevil adults [2, 14]: 100%; mortality of rice weevil adults [2, 15]: 100%; vapor pressure [3]: 11.7 mmHg; mortality at 370 ppm ([4]; 50 μl/l dose (about 370 ppm)): 95.3%; mortality at 630 ppm ([4]; 75 μl/l dose (about 630 ppm)): 100%; OSHA exposure limit ([5]; 8-hour workday and 40-hour work week): 75 ppm; oral and dermal toxicity ([5]; EPA category 4): very low; carcinogenicity ([5]; reported): non-carcinogenic; mortality at 1700 ppm ([6]; 150 μl/l dose (about 1700 ppm), 48-h fumigation): 99.9%; mortality at 2000 ppm ([6]; 200 μl/l dose (about 2000 ppm), 24-h fumigation): 100%; Pupae Mortality (%) Mean ± SE ([7]; 50 μl/l dose): 7.4 ± 3.8%; Larvae Mortality (%) Mean ± SE ([7]; 50 μl/l dose): 20.4 ± 3.6%; Pupae Mortality (%) Mean ± SE ([7]; 100 μl/l dose): 20.4 ± 5.0%; Larvae Mortality (%) Mean ± SE ([7]; 100 μl/l dose): 69.1 ± 4.6%; Eggs Total neonates ([7]; 100 μl/l dose, 890 eggs (control 370 neonates of 887)): 0; Pupae Mortality (%) Mean ± SE ([7]; 200 μl/l dose): 43.5%; Larvae Mortality (%) Mean ± SE ([7]; 200 μl/l dose): 95.9 ± 1.3%; Eggs Total neonates ([7]; 200 μl/l dose, 884 eggs (control 370 neonates of 887)): 0; effect on navel orangeworm eggs ([7]; both doses (100 and 200 μl/l)): All eggs were killed; mortality of spotted wing drosophila flies [8]: 100%; mortality of confused flour beetle adults [9, 14]: 100%; mortality of confused flour beetle adults [9, 15]: 100%; mortality of termite workers [10]: 100%; water solubility [11]: 466.3 µg/mL (≈ 4.14 mM)
